Reference: US3982931A, “N,N-di-sec.butyl-benzamide herbicides” (priority 1967, dated 1976)

Columns and labels:
artemisia vulgaris L. = assay: herbicidal activity, soil treatment one day after sowing; format: in vivo
Source text: (§1) The infesting species and the agrarian species have been indicated in Table 1 by letters, as follows:
B = artemisia vulgaris L.
(§2) Method of evaluation of the results (of tests):
(§3) 1 slight differences with respect to the control;
(§4) 3 = considerable activity with damages that definitely impair the further development of most of the small plants; an activity degree already useful for practical purposes;
(§5) 4 = maximum of activity with lack of germination or total containment of the small plants in the emerging stage.
(§6) In the case of an intermediate activity between two classes of the scale, both values are recorded with the one which corresponds to the preeminent activity preceding.
(§7) TABLE 2 reports the activity data of other compounds that fall within the class which is the object of this invention.
(§8) TABLE 3 reports data on the herbicidal activity against infesting herbs, while TABLE 4 reports data concerning the activity on useful species of agricultural cultivations. These tables employ the criterion explained previously. […]

vicia sativa L. = assay: as above; format: in vivo
Source text: as §1, §2, §3, §4, §5, §6, §7

chenopodium album L. = assay: as above; format: in vivo
Source text: as §1, §2, §3, §4, §5, §6, §7, §8

[1] = tested on: echinocloa crus-galli R.S.; assay: as above; format: in vivo
Source text: as §1
D = echinocloa crus-galli R.S.
as §2, §3, §4, §5, §6, §7, §8

oryza sativa L. (rice) = assay: activity on agrarian species, soil treatment one day after sowing; format: in vivo; details: in vivo
Source text: as §1
P = oryza sativa L. (rice)
as §2
(§9) 0 = no activity and no difference with respect to the control;
as §3, §4, §5, §6, §7
(§10) TABLE 3 reports data on the herbicidal activity against infesting herbs, while TABLE 4 reports data concerning the activity on useful species of agricultural cultivations. These tables employ the criterion explained previously. The product was spread on the soil one day after sowing, in quantities of 1, 3, 6, 8, 10, 12 and 14 kg/ha.

[2] = tested on: triticum vulgare L. (wheat); assay: as above; format: in vivo; details: in vivo
Source text: as §1
N = triticum vulgare L. (wheat)
as §2, §9, §3, §4, §5, §6, §7, §10

setaria glauca L. = assay: herbicidal activity, soil treatment one day after sowing; format: in vivo
Source text: as §1, §2, §3, §4, §5
In the case of an intermediate activity between two classes of the scale, both values are recorded with the one which corresponds to the preeminent activity preceding. […]
as §8

[3] = tested on: amaranthus retroflexus L.; assay: as above; format: in vivo
Source text: as §1
A = amaranthus retroflexus L.
as §2, §3, §4, §5, §6, §7, §8

[4] = tested on: phaseolus vulgaris (bean); assay: activity on agrarian species, soil treatment one day after sowing; format: in vivo, Phaseolus vulgaris L.; details: in vivo
Source text: as §1
I = phaseolus vulgaris (bean)
as §2, §9, §3, §4, §5, §6, §7, §10

pisum sativum L. (pea) = assay: as above; format: in vivo; details: in vivo
Source text: as §1
L = pisum sativum L. (pea)
as §2, §9, §3, §4, §5, §6, §7, §8

zea mais L. (corn) = assay: as above; format: in vivo; details: in vivo
Source text: as §1, §2, §9, §3, §4, §5, §6, §7, §10

avena sativa (oats) = assay: as above; format: in vivo, Avena sativa L.; details: in vivo
Source text: as §1, §2, §9, §3, §4, §5, §6, §7, §10

| Compound | activity on B, 0-4 scale (artemisia vulgaris L.; 6 kg/ha) | activity on F, 0-4 scale (vicia sativa L.; 6 kg/ha) | activity on C, 0-4 scale (chenopodium album L.; 6 kg/ha) | activity on D, 0-4 scale ([1]; 6 kg/ha) | activity on P, 0-4 scale (oryza sativa L. (rice)) | activity on E, 0-4 scale (setaria glauca L.; 6 kg/ha) | activity on A, 0-4 scale ([3]; 6 kg/ha) | activity on I, 0-4 scale [4] | activity on L, 0-4 scale (pisum sativum L. (pea)) | activity on O, 0-4 scale (zea mais L. (corn)) | activity on G, 0-4 scale (avena sativa (oats)) | other results |
| --- | --- | --- | --- | --- | --- | --- | --- | --- | --- | --- | --- | --- |
| NC(=O)c1ccccc1Cl [C, 2,chloro-benzamide, reference compound] | 1 | 2-3 | 2 | 0-1 | 0-1 | 0 | 2 | – | – | – | – | activity on N, 0-4 scale [2]: 0-1 |
| CCC(C)N(C(=O)c1ccc(Cl)cc1Cl)C(C)CC (stereo not shown) [PA214, 2,4-dichloro-N,N-di-sec.butyl-benzamide] | – | 0 | – | 4 | 0 | 4 | 3-4 | 0 | 0 | 0 | 0 | activity on B, 0-4 scale (artemisia vulgaris L.; 2 kg/ha): 1; activity on B, 0-4 scale (artemisia vulgaris L.; 4 kg/ha): 2; activity on F, 0-4 scale (vicia sativa L.; 2 kg/ha): 0; activity on F, 0-4 scale (vicia sativa L.; 4 kg/ha): 0; activity on C, 0-4 scale (chenopodium album L.; 2 kg/ha): 1; activity on C, 0-4 scale (chenopodium album L.; 4 kg/ha): 1-2; activity on D, 0-4 scale ([1]; 4 kg/ha): 3-4; activity on E, 0-4 scale (setaria glauca L.; 2 kg/ha): 3; activity on E, 0-4 scale (setaria glauca L.; 4 kg/ha): 3-4; activity on A, 0-4 scale ([3]; 2 kg/ha): 1; activity on A, 0-4 scale ([3]; 4 kg/ha): 2-3 |
| CCC(C)N(C(=O)c1ccccc1Cl)C(C)CC (stereo not shown) [PA215 2,chloro-N,N-disec.butyl-benzamide, 2-chloro-N,N-di-sec.butyl-benzamide] | 1 | 0 | 0-1 | 2-3 | 0 | 3 | 2 | 0 | 0 | 0 | 0 | – |
| CCC(C)N(C(=O)c1cccc(Cl)c1)C(C)CC (stereo not shown) [PA215, 3-chloro-N,N-di-sec.butyl-benzamide] | 1-2 | 1-2 | 1-2 | 3 | 0 | 3 | 1-2 | 0 | – | 0 | 0 | – |
| CCC(C)N(C(=O)c1cccc(C)c1)C(C)CC (stereo not shown) [PA226, 3-methyl-N,N-di-sec.butyl-benzamide] | 1-2 | 0 | 1-2 | 4 | 0 | 4 | 2 | 0 | 0 | 0 | 0 | activity on B, 0-4 scale (artemisia vulgaris L.; 2 kg/ha): 1; activity on B, 0-4 scale (artemisia vulgaris L.; 4 kg/ha): 1-2; activity on F, 0-4 scale (vicia sativa L.; 2 kg/ha): 0; activity on F, 0-4 scale (vicia sativa L.; 4 kg/ha): 0; activity on C, 0-4 scale (chenopodium album L.; 2 kg/ha): 0-1; activity on C, 0-4 scale (chenopodium album L.; 4 kg/ha): 1; activity on D, 0-4 scale ([1]; 2 kg/ha): 2-3; activity on D, 0-4 scale ([1]; 4 kg/ha): 3; activity on E, 0-4 scale (setaria glauca L.; 2 kg/ha): 2; activity on E, 0-4 scale (setaria glauca L.; 4 kg/ha): 3-4; activity on A, 0-4 scale ([3]; 4 kg/ha): 1-2 |
| CCC(C)N(C(=O)c1ccc(C)c(C)c1)C(C)CC (stereo not shown) [PA233, 3,4-dimethyl-N,N-di-sec.butyl-benzamide] | 2 | 0 | 2 | 4 | – | 4 | 2-3 | 0 | 0 | 0 | 0 | activity on D, 0-4 scale ([1]; 2 kg/ha): 2-3; activity on D, 0-4 scale ([1]; 4 kg/ha): 3; activity on E, 0-4 scale (setaria glauca L.; 2 kg/ha): 3; activity on E, 0-4 scale (setaria glauca L.; 4 kg/ha): 3-4 |
| CCCN(CCC)C(=O)c1cc(Cl)cc(Cl)c1Cl [PA303, 2,3,5-trichloro-N,N-di-n. propyl-benzamide, reference compound] | 1 | 0-1 | – | 4 | 3 | 4 | 3 | – | 1 | – | – | activity on B, 0-4 scale (artemisia vulgaris L.; 1 kg/ha): 1; activity on B, 0-4 scale (artemisia vulgaris L.; 2 kg/ha): 1; activity on B, 0-4 scale (artemisia vulgaris L.; 4 kg/ha): 1; activity on F, 0-4 scale (vicia sativa L.; 1 kg/ha): 0; activity on F, 0-4 scale (vicia sativa L.; 2 kg/ha): 0; activity on F, 0-4 scale (vicia sativa L.; 4 kg/ha): 0-1; activity on C, 0-4 scale (chenopodium album L.; 1 kg/ha): 1; activity on C, 0-4 scale (chenopodium album L.; 2 kg/ha): 1; activity on C, 0-4 scale (chenopodium album L.; 4 kg/ha): 1-2; activity on D, 0-4 scale ([1]; 1 kg/ha): 1-2; activity on D, 0-4 scale ([1]; 4 kg/ha): 3-4; activity on E, 0-4 scale (setaria glauca L.; 1 kg/ha): 1-2; activity on E, 0-4 scale (setaria glauca L.; 2 kg/ha): 3; activity on A, 0-4 scale ([3]; 1 kg/ha): 1; activity on A, 0-4 scale ([3]; 4 kg/ha): 2-3 |
| CCC(C)N(C(=O)c1cccc(Cl)c1Cl)C(C)CC (stereo not shown) [PA336, 2,3-dichloro-N,N-di-sec.butyl-benzamide] | 3 | 0 | – | 4 | 0 | 4 | 4 | 0 | 0 | 0 | 0 | activity on B, 0-4 scale (artemisia vulgaris L.; 2 kg/ha): 1; activity on B, 0-4 scale (artemisia vulgaris L.; 4 kg/ha): 2; activity on F, 0-4 scale (vicia sativa L.; 2 kg/ha): 0; activity on F, 0-4 scale (vicia sativa L.; 4 kg/ha): 0; activity on C, 0-4 scale (chenopodium album L.; 2 kg/ha): 2; activity on C, 0-4 scale (chenopodium album L.; 4 kg/ha): 3; activity on D, 0-4 scale ([1]; 2 kg/ha): 3-4; activity on D, 0-4 scale ([1]; 4 kg/ha): 4; activity on E, 0-4 scale (setaria glauca L.; 4 kg/ha): 4; activity on A, 0-4 scale ([3]; 2 kg/ha): 2-3 |
| CCC(C)N(C(=O)c1ccc(F)c(Br)c1)C(C)CC (stereo not shown) [PA518, 3-bromo,4-fluoro-N,N-di-sec.butyl-benzamide] | 3 | 0 | 3 | 3-4 | – | 4 | 2 | – | – | – | – | – |
| CC(C)CN(CC(C)C)C(=O)c1cccc(Br)c1 [PA521, 3-bromo-N,N-di-isobutyl-benzamide, reference compound] | 1 | 0 | 1 | 1-2 | – | 1-2 | 1 | – | – | – | – | – |
| CCCCN(C(=O)c1cccc(Br)c1)C(C)CC (stereo not shown) [PA525, 3-bromo-N,n.butyl-N-sec.butyl-benzamide] | 0-1 | 0 | 1 | 3 | – | 3-4 | 1-2 | – | – | – | – | – |
| O=C(O)c1cccc(Br)c1 [PA577, 3,bromo-benzoic acid, reference compound] | 0 | 0 | 0 | 0 | – | 0 | 0 | – | – | – | – | – |
| CCC(C)N(C(=O)c1ccc(Br)c(I)c1)C(C)CC (stereo not shown) [PA619, 3-iodo,4-bromo-N,N-di-sec.butyl-benzamide] | 0 | 0 | 0-1 | 3 | – | 3 | 0-1 | – | – | – | – | – |
| CCC(C)N(C(=O)c1cc(Cl)c(Cl)c(Cl)c1)C(C)CC (stereo not shown) [PA621, 3,4,5-trichloro-N,N-di-sec.butyl-benzamide] | 2 | 0 | 2 | 4 | – | 4 | 2 | – | – | – | – | – |
| CCC(C)N(C(=O)c1cc(Cl)cc(Br)c1)C(C)CC (stereo not shown) [PA626, 3-bromo,5-chloro-N,N-di-sec.butyl-benzamide] | 0-1 | 0 | 0-1 | 3-4 | – | 4 | 1-2 | – | – | – | – | – |
| CCC(C)N(C(=O)c1c(Cl)cc(Cl)cc1Cl)C(C)CC (stereo not shown) [PA633, 2,4,6-trichloro-N,N-di-sec.butyl-benzamide] | 2-3 | 0 | 2-3 | 4 | – | 4 | 2 | – | – | – | – | – |
| CCCC(C)N(C(=O)c1ccc(Cl)c(Cl)c1)C(C)CC (stereo not shown) [PA634, 3,4-dichloro-N-sec.amyl,N-sec.butyl-benzamide] | 2 | 0 | 1-2 | 3 | – | 3-4 | 2 | – | – | – | – | – |
